# Data taken from patent publication US12172990B2 (Constellation Pharmaceuticals, Inc., priority 2018, dated 2024).
# How the values were obtained:
# full length human TREX1 = full length human TREX1 (Homo sapiens (Human), UniProt Q9NSU2); experiment: TREX1 Biochemical Assay (fluorescence assay measuring degradation of dsDNA substrate); details: 150 pM TREX1, 60 nM dsDNA substrate, 25 minutes at room temperature
# Protocol: Degradation of the dsDNA liberates free fluorophore to produce a fluorescent signal. Specifically, 7.5 μL of N-terminally His-Tev tagged full length human TREX1 (expressed in E. coli and purified in house) in reaction buffer (50 mM Tris (pH 7.4), 150 mM NaCl, 2 mM DTT, 0.1 mg/mL BSA, 0.01% (v/v) Tween-20 and 100 mM MgCl2 were added to a 384-well Black ProxiPlate Plus (Perkin Elmer) which already contained compound (150 nL) at varying concentrations as a 10 point dose-response in DMSO. To this was added 7.5 μL of dsDNA substrate (Strand A: 5′ TEX615/GCT AGG CAG 3′; Strand B: 5′ CTG CCT AGC/IAbRQSp (Integrated DNA Technologies)) in reaction buffer. Final concentrations were 150 pM TREX1, 60 nM dsDNA substrate in reaction buffer with 1.0% DMSO (v/v). After 25 minutes at room temperature, reactions were quenched by the addition of 5 μL of stop buffer (same as reaction buffer plus 200 mM EDTA). Final concentrations in the quenched reaction were 112.5 pM TREX1, 45 nM DNA and 50 mM EDTA in a volume of 20 μL. After a 5-minute incubation at room temperature, plates were read in a laser sourced Envision (Perkin-Elmer), measuring fluorescence at 615 nm following excitation w/570 nm light. IC50 values were calculated by comparing the measured fluorescence at 615 nm ratio relative to control wells pre-quenched w/stop buffer (100% inhibition) and no inhibitor (0% inhibition) controls as using non-linear least square four parameter fits and either Genedata or GraphPad Prism (GraphPad Software, Inc.).
# [1] = target: human TREX2 (residues M44-A279) (Homo sapiens (Human), UniProt Q9BQ50); experiment: TREX2 Biochemical Assay (fluorescence assay measuring degradation of dsDNA substrate); details: 2.5 nM TREX2, 60 nM dsDNA substrate, 25 minutes at room temperature
# Protocol: Degradation of the dsDNA liberates free fluorophore to produce a fluorescent signal. Specifically, 7.5 μL of N-terminally His-Tev tagged human TREX2 (residues M44-A279, expressed in E. coli and purified in house) in reaction buffer (50 mM Tris (pH 7.4), 150 mM NaCl, 2 mM DTT, 0.1 mg/mL BSA, 0.01% (v/v) Tween-20 and 100 mM MgCl2) was added to a 384-well Black ProxiPlate Plus (Perkin Elmer) which already contained compound (150 nL) at varying concentrations as a 10 point dose-response in DMSO. To this was added 7.5 μL of dsDNA substrate (Strand A: 5′ TEX615/GCT AGG CAG 3′; Strand B: 5′ CTG CCT AGC/IAbRQSp (IDT)) in reaction buffer. Final concentrations were 2.5 nM TREX2, 60 nM dsDNA substrate in reaction buffer with 1.0% DMSO (v/v). After 25 minutes at room temperature, reactions were quenched by the addition of 5 μL of stop buffer (same as reaction buffer plus 200 mM EDTA). Final concentrations in the quenched reaction mixture were […] TREX2, 45 nM DNA and 50 mM EDTA in a volume of 20 μL. After a 5-minute incubation at room temperature, plates were read in a laser sourced Envision (Perkin-Elmer), measuring fluorescence at 615 nm following excitation w/570 nm light. IC50 values were calculated by comparing the measured fluorescence at 615 nm ratio relative to control wells pre-quenched w/stop buffer (100% inhibition) and no inhibitor (0% inhibition) controls as using non-linear least square four parameter fits and either Genedata or GraphPad Prism (GraphPad Software, Inc.).
# human TREX2 (residues M44-A279), sequence (Q9BQ50 whole entry, the tested form may be a part): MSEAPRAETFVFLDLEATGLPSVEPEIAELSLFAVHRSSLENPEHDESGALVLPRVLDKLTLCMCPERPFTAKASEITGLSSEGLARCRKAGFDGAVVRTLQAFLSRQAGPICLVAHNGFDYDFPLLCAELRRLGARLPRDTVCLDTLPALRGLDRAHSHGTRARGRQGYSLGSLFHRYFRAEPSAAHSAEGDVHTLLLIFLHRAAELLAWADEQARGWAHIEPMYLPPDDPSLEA
# full length human TREX1, sequence (Q9NSU2 whole entry): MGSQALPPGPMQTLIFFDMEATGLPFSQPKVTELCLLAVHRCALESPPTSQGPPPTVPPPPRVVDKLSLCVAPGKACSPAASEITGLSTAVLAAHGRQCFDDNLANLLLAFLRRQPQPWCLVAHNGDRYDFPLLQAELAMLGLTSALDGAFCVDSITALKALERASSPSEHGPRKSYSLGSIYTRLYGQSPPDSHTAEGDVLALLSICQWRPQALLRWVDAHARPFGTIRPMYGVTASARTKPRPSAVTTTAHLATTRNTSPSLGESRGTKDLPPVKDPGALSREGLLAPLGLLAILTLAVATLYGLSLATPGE
IC50 (full length human TREX1),IC50 [1],Compound
< 100 nM,1000 to 10000 nM,"Cc1cc(Br)cc(-c2nc(C(=O)Nc3cnoc3)c(O)c(=O)n2C)c1 [Example 1, 2-(3-bromo-5-methylphenyl)-5-hydroxy-N-(isoxazol-4-yl)-1-methyl-6-oxo-1,6-dihydropyrimidine-4-carboxamide]"
100 to 1000 nM,10000 to 100000 nM,"Cn1c(C2CCC2)nc(C(=O)Nc2cnoc2)c(O)c1=O [Example 2, 2-cyclobutyl-5-hydroxy-N-(isoxazol-4-yl)-1-methyl-6-oxo-1,6-dihydropyrimidine-4-carboxamide]"
100 to 1000 nM,10000 to 100000 nM,"Cn1c(C2CC2)nc(C(=O)Nc2cnoc2)c(O)c1=O [Example 3, 2-cyclopropyl-5-hydroxy-N-(isoxazol-4-yl)-1-methyl-6-oxo-1,6-dihydropyrimidine-4-carboxamide]"
100 to 1000 nM,1000 to 10000 nM,"Cc1ccc(Br)cc1-c1nc(C(=O)Nc2cnoc2)c(O)c(=O)n1C [Example 4, 2-(5-bromo-2-methylphenyl)-5-hydroxy-N-(isoxazol-4-yl)-1-methyl-6-oxo-1,6-dihydropyrimidine-4-carboxamide]"
< 100 nM,1000 to 10000 nM,"Cc1c(Br)cccc1-c1nc(C(=O)Nc2cnoc2)c(O)c(=O)n1C [Example 5, 2-(3-bromo-2-methylphenyl)-5-hydroxy-N-(isoxazol-4-yl)-1-methyl-6-oxo-1,6-dihydropyrimidine-4-carboxamide]"
100 to 1000 nM,10000 to 100000 nM,"Cn1c(Cc2ccccc2)nc(C(=O)Nc2cnoc2)c(O)c1=O [Example 6, 2-benzyl-5-hydroxy-N-(isoxazol-4-yl)-1-methyl-6-oxo-1,6-dihydropyrimidine-4-carboxamide]"
100 to 1000 nM,10000 to 100000 nM,"Cn1c(C2(NC(=O)OCc3ccccc3)CC2)nc(C(=O)Nc2cnoc2)c(O)c1=O [Example 7, benzyl (1-(5-hydroxy-4-(isoxazol-4-ylcarbamoyl)-1-methyl-6-oxo-1,6-dihydropyrimidin-2-yl)cyclopropyl)carbamate]"
100 to 1000 nM,10000 to 100000 nM,"Cn1c(-c2ccccc2)nc(C(=O)Nc2cnoc2)c(O)c1=O [Example 8, 5-hydroxy-N-(isoxazol-4-yl)-1-methyl-6-oxo-2-phenyl-1,6-dihydropyrimidine-4-carboxamide]"
100 to 1000 nM,10000 to 100000 nM,"Cn1c(-c2ccccc2Br)nc(C(=O)Nc2cnoc2)c(O)c1=O [Example 9, 2-(2-bromophenyl)-5-hydroxy-N-(isoxazol-4-yl)-1-methyl-6-oxo-1,6-dihydropyrimidine-4-carboxamide]"
< 100 nM,1000 to 10000 nM,"Cn1c(-c2cccc(Br)c2)nc(C(=O)Nc2cnoc2)c(O)c1=O [Example 10, 2-(3-bromophenyl)-5-hydroxy-N-(isoxazol-4-yl)-1-methyl-6-oxo-1,6-dihydropyrimidine-4-carboxamide]"
100 to 1000 nM,10000 to 100000 nM,"Cn1c(-c2ccc(Br)cc2)nc(C(=O)Nc2cnoc2)c(O)c1=O [Example 11, 2-(4-bromophenyl)-5-hydroxy-N-(isoxazol-4-yl)-1-methyl-6-oxo-1,6-dihydropyrimidine-4-carboxamide]"
1000 to 10000 nM,10000 to 100000 nM,"Cn1c(C2CCN(C(=O)OC(C)(C)C)CC2)nc(C(=O)Nc2cnoc2)c(O)c1=O [Example 12, tert-butyl 4-(5-hydroxy-4-(isoxazol-4-ylcarbamoyl)-1-methyl-6-oxo-1,6-dihydropyrimidin-2-yl)piperidine-1-carboxylate]"
100 to 1000 nM,10000 to 100000 nM,"Cn1c(C2CCCN(C(=O)OC(C)(C)C)C2)nc(C(=O)Nc2cnoc2)c(O)c1=O (centres unmarked) [Example 13, tert-butyl 3-(5-hydroxy-4-(isoxazol-4-ylcarbamoyl)-1-methyl-6-oxo-1,6-dihydropyrimidin-2-yl)piperidine-1-carboxylate]"
100 to 1000 nM,1000 to 10000 nM,"Cn1c(C2CCCCN2C(=O)OC(C)(C)C)nc(C(=O)Nc2cnoc2)c(O)c1=O (centres unmarked) [Example 14, tert-butyl 2-(5-hydroxy-4-(isoxazol-4-ylcarbamoyl)-1-methyl-6-oxo-1,6-dihydropyrimidin-2-yl)piperidine-1-carboxylate]"
< 100 nM,< 1000 nM,"Cn1c(-c2cccc(Br)c2OCCO)nc(C(=O)Nc2cnoc2)c(O)c1=O [Example 15, 2-(3-bromo-2-(2-hydroxyethoxy)phenyl)-5-hydroxy-N-(isoxazol-4-yl)-1-methyl-6-oxo-1,6-dihydropyrimidine-4-carboxamide]"
100 to 1000 nM,10000 to 100000 nM,"CC(C)(C)OC(=O)N1CCCC(c2nc(C(=O)Nc3cnoc3)c(O)c(=O)[nH]2)C1 (centres unmarked) [Example 16, tert-butyl 3-(5-hydroxy-4-(isoxazol-4-ylcarbamoyl)-6-oxo-1,6-dihydropyrimidin-2-yl)piperidine-1-carboxylate]"
1000 to 10000 nM,10000 to 100000 nM,"Cn1c(CC2CCN(C(=O)OC(C)(C)C)CC2)nc(C(=O)Nc2cnoc2)c(O)c1=O [Example 17, tert-butyl 4-((5-hydroxy-4-(isoxazol-4-ylcarbamoyl)-1-methyl-6-oxo-1,6-dihydropyrimidin-2-yl)methyl)piperidine-1-carboxylate]"
100 to 1000 nM,10000 to 100000 nM,"Cn1c(CC2CCCN(C(=O)OC(C)(C)C)C2)nc(C(=O)Nc2cnoc2)c(O)c1=O (centres unmarked) [Example 18, tert-butyl 3-((5-hydroxy-4-(isoxazol-4-ylcarbamoyl)-1-methyl-6-oxo-1,6-dihydropyrimidin-2-yl)methyl)piperidine-1-carboxylate]"
1000 to 10000 nM,> 100000 nM,"Cn1c(C2CN(C(=O)OC(C)(C)C)C2)nc(C(=O)Nc2cnoc2)c(O)c1=O [Example 19, tert-butyl 3-(5-hydroxy-4-(isoxazol-4-ylcarbamoyl)-1-methyl-6-oxo-1,6-dihydropyrimidin-2-yl)azetidine-1-carboxylate]"
100 to 1000 nM,10000 to 100000 nM,"Cn1c(C2(c3ccccc3)CC2)nc(C(=O)Nc2cnoc2)c(O)c1=O [Example 20, 5-hydroxy-N-(isoxazol-4-yl)-1-methyl-6-oxo-2-(1-phenylcyclopropyl)-1,6-dihydropyrimidine-4-carboxamide]"
1000 to 10000 nM,> 100000 nM,"Cn1c(-c2ccncc2)nc(C(=O)Nc2cnoc2)c(O)c1=O [Example 21, 5-hydroxy-N-(isoxazol-4-yl)-1-methyl-6-oxo-2-(pyridin-4-yl)-1,6-dihydropyrimidine-4-carboxamide]"
1000 to 10000 nM,10000 to 100000 nM,"Cn1c(C2CCN2C(=O)OC(C)(C)C)nc(C(=O)Nc2cnoc2)c(O)c1=O (centres unmarked) [Example 22, tert-butyl 2-(5-hydroxy-4-(isoxazol-4-ylcarbamoyl)-1-methyl-6-oxo-1,6-dihydropyrimidin-2-yl)azetidine-1-carboxylate]"
100 to 1000 nM,1000 to 10000 nM,"Cn1c(C(NC(=O)OCc2ccccc2)c2ccccc2)nc(C(=O)Nc2cnoc2)c(O)c1=O (centres unmarked) [Example 23, benzyl ((5-hydroxy-4-(isoxazol-4-ylcarbamoyl)-1-methyl-6-oxo-1,6-dihydropyrimidin-2-yl)(phenyl)methyl)carbamate]"
100 to 1000 nM,> 100000 nM,"Cn1c(C(NC(=O)OCc2ccccc2)c2ccc(Br)cc2)nc(C(=O)Nc2cnoc2)c(O)c1=O (centres unmarked) [Example 24, benzyl ((4-bromophenyl)(5-hydroxy-4-(isoxazol-4-ylcarbamoyl)-1-methyl-6-oxo-1,6-dihydropyrimidin-2-yl)methyl)carbamate]"
100 to 1000 nM,1000 to 10000 nM,"Cc1cc(C)cc(-c2nc(C(=O)Nc3cnoc3)c(O)c(=O)n2C)c1 [Example 25, 2-(3,5-dimethylphenyl)-5-hydroxy-N-(isoxazol-4-yl)-1-methyl-6-oxo-1,6-dihydropyrimidine-4-carboxamide]"
